Measurements: patent US10065927B2, “α-ketoacylic isoniazid compounds, process for producing said compounds, use of the compounds in the treatment of tuberculosis” (priority 2015, dated 2018)
In brackets after ≈: the same amount, converted by molar mass.

System: M. tuberculosis isoniazid resistant strain
Experiment: microbe, parasite or virus in culture
Format: cell-based
Settings: Mycobacterium tuberculosis

## NNC(=O)c1ccncc1 [Isoniazid]
  MIC: > 73 µM

## CC(=O)Nc1ccccc1C(=O)C(=O)NNC(=O)c1ccncc1 [Compound 2, N-(2-(2-(2-Isonicotinoylhydrazine)-2-Oxoacetyl)Phenyl) Acetamide]
  MIC: 19.2 µM (≈ 6.26 µg/mL)
